{"source": "patent US20070197432A1", "about": "“Peptides for preventing, diagnosing and treating animal and/or human leptospirosis” (priority 2002, published 2007)", "key": {"[1]": {"tested_on": "Leptospira interrogans sl serovar canicola", "assay": "Trial 1: gerbils immunized with PP-KLH, 10^−2.5 canicola challenge", "format": "in vivo, gerbil", "procedure": "An immunization/challenge protocol was carried out in order to evaluate the protection that can be provided by the PP peptide (SEQ ID No. 1) coupled to the KLH protein.\n(§1) This construct is administered subcutaneously without adjuvant, with PBS as a negative control (batch 2).\nBatch 1: 10 gerbils, 2 injections of 30 μg of PP-KLH in 300 μl, subcutaneously.\nBatch 2: 10 gerbils, 2 injections of PBS in 300 μl.\nThe two injections in a volume of 300 μl were administered subcutaneously, two weeks apart. A challenge by intraperitoneal injection of 0.5 ml of a canicola culture with a titer of 90 to 100 TU (turbidimetry) diluted to 10^−2.5 was administered two weeks after the second injection. • Antigenic response: Monitoring by ELISA of the immune response of the gerbils against the PP peptide"}, "[2]": {"tested_on": "Leptospira interrogans sl serovar canicola", "assay": "Trial 2: gerbils immunized with PP-KLH or PP, 10^−2 canicola challenge", "format": "in vivo, gerbil", "set-up": "Mortality rate / Survival rate: unit not given here", "procedure": "An immunization/challenge trial was carried out in order to evaluate the protection that can be provided by the PP peptide (SEQ ID No. 1) coupled or not coupled to the KLH protein.\nThis construct is administered subcutaneously without adjuvant, and PBS is administered by the same route as the negative control (batch 3). • Batch 1: 12 gerbils, 2 injections of 30 μg of PP-KLH in 300 μl. • Batch 2: 12 gerbils, 2 injections of 30 μg of PP in 300 μl. • Batch 3: 15 gerbils, 2 injections of PBS in 300 A1.\nThe two injections in a volume of 300 μl were administered subcutaneously, two weeks apart. A challenge by intraperitoneal injection of 0.5 ml of a serovar canicola leptospiral culture with a titer of 90 to 100 TU (turbidimetry) diluted to 10^−2 was administered three weeks after the second injection."}, "[3]": {"tested_on": "Leptospira interrogans sl serovar canicola", "assay": "Dogs immunized with PP-KLH, canicola challenge: clinical, hematological and biochemical parameters", "format": "in vivo, dog", "procedure": "An immunization/challenge protocol was carried out in order to evaluate the protection that can be provided by the PP peptide (SEQ ID No. 1) NH2-coupled to the KLH carrier protein (FIG. 14).\nas §1\nBatch 1: 6 SPF dogs, 2 injections of 250 μg of PP-KLH in 1 ml subcutaneously.\nBatch 2: 6 SPF dogs, control.\nThe two injections were administered subcutaneously, […].\nThe challenge (CH) was carried out on D0.\nThe animals are given a challenge at a rate of one virulent culture of 4 to 6 days. For an immunized batch and a control batch, each animal received, in each eye, 0.3 ml of the culture having a titer of 120 TU (i.e. 2×10^8 leptospires per ml) and, intraperitoneally, 4 ml of the same culture diluted ten-fold.\nThe challenge phase was carried out from D-1 to […], with the challenge on D0.\nDuring this phase, the temperature was measured on D0, D1, D2, D3, D4, D5, D6 and D7.\nThe hematological parameters were measured on D-1, D3, D7, D10, D14, D15 and D41.\nThe biochemical parameters were measured on D-1, D3, D7, D10, D14, D18, D25 and D41."}, "[4]": {"settings": "Accumulation of the two trials, survival"}}, "note": "No end group written: not given here.", "data": [{"substance": "PP-KLH: PP peptide with cysteine added at the N-terminal position, coupled via sulfo-MBS to KLH carrier protein (keyhole limpet hemocyanin) (KAKPVQKLDDDDDGDDTYKEERHNK; not fully specified (N-terminus))", "values": [{"measurement": "Mortality rate", "setting": "[1]; 10^−2.5 canicola challenge", "value": "6/10"}, {"measurement": "Survival rate", "setting": "[1]; 10^−2.5 canicola challenge", "value": "4/10"}, {"measurement": "gerbils alive", "setting": "[1]; 10^−2.5 canicola challenge, D4", "value": 10}, {"measurement": "gerbils alive", "setting": "[1]; 10^−2.5 canicola challenge, D5", "value": 10}, {"measurement": "gerbils alive", "setting": "[1]; 10^−2.5 canicola challenge, D6", "value": 7}, {"measurement": "gerbils alive", "setting": "[1]; 10^−2.5 canicola challenge, D7", "value": 5}, {"measurement": "gerbils alive", "setting": "[1]; 10^−2.5 canicola challenge, D8", "value": 4}, {"measurement": "gerbils alive", "setting": "[1]; 10^−2.5 canicola challenge, D9", "value": 4}, {"measurement": "gerbils alive", "setting": "[1]; 10^−2.5 canicola challenge, D10", "value": 4}, {"measurement": "gerbils alive", "setting": "[1]; 10^−2.5 canicola challenge, D11", "value": 4}, {"measurement": "gerbils alive", "setting": "[1]; 10^−2.5 canicola challenge, D30", "value": 4}, {"measurement": "gerbils alive", "setting": "[1]; 10^−2.5 canicola challenge, before challenge", "value": 10}, {"measurement": "gerbils alive", "setting": "[1]; 10^−2.5 canicola challenge, day of challenge", "value": 10}, {"measurement": "Survival rate", "setting": "[1]; 10^−2.5 canicola challenge, listed as PP peptide coupled to the KLH protein", "value": "4 of the 10"}, {"measurement": "p, log-rank test versus control", "setting": "[1]; Experiment 1, survival", "value": "<7.10^−2"}, {"measurement": "Mortality rate", "setting": "[2]; 10^−2 canicola challenge", "value": 8.3}, {"measurement": "Survival rate", "setting": "[2]; 10^−2 canicola challenge", "value": 91.6}, {"measurement": "mortality in the group (dead/number)", "setting": "[2]; 10^−2 canicola challenge", "value": "1/12"}, {"measurement": "gerbils at challenge", "setting": "[2]; 10^−2 canicola challenge, D0", "value": 12}, {"measurement": "mortality of gerbils (dead/number)", "setting": "[2]; 10^−2 canicola challenge, D4", "value": "0/12"}, {"measurement": "mortality of gerbils (dead/number)", "setting": "[2]; 10^−2 canicola challenge, D5", "value": "0/12"}, {"measurement": "mortality of gerbils (dead/number)", "setting": "[2]; 10^−2 canicola challenge, D6", "value": "0/12"}, {"measurement": "mortality of gerbils (dead/number)", "setting": "[2]; 10^−2 canicola challenge, D7", "value": "0/12"}, {"measurement": "mortality of gerbils (dead/number)", "setting": "[2]; 10^−2 canicola challenge, D8", "value": "0/12"}, {"measurement": "mortality of gerbils (dead/number)", "setting": "[2]; 10^−2 canicola challenge, D9", "value": "1/12"}, {"measurement": "mortality of gerbils (dead/number)", "setting": "[2]; 10^−2 canicola challenge, D10", "value": "0/11"}, {"measurement": "mortality of gerbils (dead/number)", "setting": "[2]; 10^−2 canicola challenge, D11", "value": "0/11"}, {"measurement": "mortality of gerbils (dead/number)", "setting": "[2]; 10^−2 canicola challenge, D12", "value": "0/11"}, {"measurement": "mortality of gerbils (dead/number)", "setting": "[2]; 10^−2 canicola challenge, D13", "value": "0/11"}, {"measurement": "mortality of gerbils (dead/number)", "setting": "[2]; 10^−2 canicola challenge, D14", "value": "0/11"}, {"measurement": "mortality of gerbils (dead/number)", "setting": "[2]; 10^−2 canicola challenge, D15", "value": "0/11"}, {"measurement": "mortality of gerbils (dead/number)", "setting": "[2]; 10^−2 canicola challenge, D16", "value": "0/11"}, {"measurement": "mortality of gerbils (dead/number)", "setting": "[2]; 10^−2 canicola challenge, D17", "value": "0/11"}, {"measurement": "mortality of gerbils (dead/number)", "setting": "[2]; 10^−2 canicola challenge, D28", "value": "0/11"}, {"measurement": "p, log-rank test versus control", "setting": "[2]; [4]", "value": "<2.10^−3"}, {"measurement": "χ^2, log-rank test versus control", "setting": "[2]; [4]", "value": 10.1}, {"measurement": "p, log-rank test versus control", "setting": "[2]; Experiment 2, survival", "value": "<1.10^−2"}, {"measurement": "χ^2, log-rank test versus control", "setting": "[2]; Experiment 2, survival", "value": 6.84}, {"measurement": "thrombocytopenia", "setting": "[3]; after challenge", "value": "significantly more pronounced in the controls than in the immunized dogs"}, {"measurement": "p, difference in temperature, control versus immunized dogs (controls more pronounced febrile peak)", "setting": "[3]; at D3 and D4", "value": "< 0.05"}, {"measurement": "P, evolution of mean increase in temperature, control versus immunized dogs (not significantly different)", "setting": "[3]; between D0 and D7", "value": 0.7944}, {"measurement": "P, evolution of white blood cells, control versus immunized dogs (not significantly different)", "setting": "[3]; between D-1 and D41", "value": 0.4407}, {"measurement": "p, evolution of mean variation in platelets, control versus immunized dogs (significantly different)", "setting": "[3]; between D-1 and D41", "value": 0.0412}, {"measurement": "mortality following the challenge", "setting": "[3]; dogs, immunized and control", "value": "No mortality"}, {"measurement": "protection against a canicola challenge in dogs", "setting": "[3]; overall conclusion", "value": "makes it possible to induce protection"}, {"measurement": "p, tendency for higher urea level in the controls (no significant difference)", "setting": "[3]; period of acute effect in the kidneys (D0-D10)", "value": "< 0.15"}, {"measurement": "p, urea level in the controls significantly higher", "setting": "[3]; period of kidney colonization (D10-D41)", "value": "< 0.02"}]}]}
